Assay results: US11618746B2, “Inhibitors of APOL1 and methods of using same” (Vertex Pharmaceuticals Incorporated, priority 2018, dated 2023)

The compounds below were run against T1, G1 APOL1 (Homo sapiens, UniProt O14791, I384M/S342G) (assay: Acute APOL1 Thallium Assay with inducible stable clones of HEK 293 cells). Details: HEK T-Rex tetracycline-inducible cells expressing G1 APOL1 (clone G1 DC3.25); inhibition of thallium flux rate.
T1 construct: expressed in transfected cells
T1 sequence (O14791 28-398 S342G/I384M): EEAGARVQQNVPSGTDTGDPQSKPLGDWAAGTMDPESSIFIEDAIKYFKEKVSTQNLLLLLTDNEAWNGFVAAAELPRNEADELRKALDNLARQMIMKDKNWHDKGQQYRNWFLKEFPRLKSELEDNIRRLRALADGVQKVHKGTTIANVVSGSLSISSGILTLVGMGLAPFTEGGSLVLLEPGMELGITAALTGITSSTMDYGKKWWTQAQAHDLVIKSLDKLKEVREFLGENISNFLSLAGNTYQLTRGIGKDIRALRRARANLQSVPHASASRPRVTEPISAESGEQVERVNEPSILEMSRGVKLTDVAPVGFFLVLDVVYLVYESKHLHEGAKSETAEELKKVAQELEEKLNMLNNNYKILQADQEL
Type: cell-based
Procedure, shortened: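 HEK293 T-Rex cells with tetracycline-inducible G1 APOL1 (clone DC3.25), 26000 cells per well, induced with tetracycline at plating and incubated at 37° C, 5% CO2. Pore activity read on FLIPR as Tl+ influx via fluorescence of AM-ester-loaded thallium-sensitive dye.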

Row | IC50 [nM] | SMILES
1 | < 250 | Cc1ccc2[nH]c(-c3ccc(Br)cc3)c(CCC(=O)N[C@H]3CCNC3=O)c2c1 [Compound 43, 3-[2-(4-bromophenyl)-5-methyl-1H-indol-3-yl]-N-[(3S)-2-oxopyrrolidin-3-yl]propanamide]
2 | > 1000 | O=C(CCc1c(-c2ccc(F)cc2)[nH]c2c(F)ccc(F)c12)N[C@H]1CCNC1=O [Compound 78]
3 | 250 to 1000 | O=C(CCc1c(-c2ccc(F)cc2)[nH]c2ccc(OCc3ccccc3)cc12)N[C@H]1CCNC1=O [Compound 54, 3-[5-benzyloxy-2-(4-fluorophenyl)-1H-indol-3-yl]-N-[(3S)-2-oxopyrrolidin-3-yl]propanamide]
4 | < 250 | O=C(CCc1c(-c2ccccc2)[nH]c2c(F)c(F)c(F)cc12)N[C@@H]1C(=O)NC[C@H]1O [Compound 80]
5 | < 250 | O=C(CCc1c(-c2ccccc2)[nH]c2cc(F)cc(F)c12)N[C@@H]1C(=O)NC[C@H]1O [Compound 85]
6 | < 250 | O=C(CCc1c(-c2ccc(F)cc2)[nH]c2c(F)cc(F)cc12)N[C@H]1CCNC1=O [Compound 3, 3-[5,7-difluoro-2-(4-fluorophenyl)-1H-indol-3-yl]-N-[(3S)-2-oxopyrrolidin-3-yl]propanamide]
7 | < 250 | Cc1cc(F)cc2c(CCC(=O)N[C@@H]3C(=O)NC[C@H]3O)c(-c3ccc(F)cc3)[nH]c12 [Compound 37]
8 | < 250 | N#Cc1cc(F)cc2c(CCC(=O)N[C@@H]3C(=O)NC[C@H]3O)c(-c3ccc(F)cc3)[nH]c12 [Compound 42]
9 | < 250 | O=C(CCc1c(-c2ccc(F)cc2)[nH]c2ccccc12)N[C@@H]1C(=O)NC[C@H]1O [Compound 87, 3-[2-(4-fluorophenyl)-1H-indol-3-yl]-N-[(3S,4R)-4-hydroxy-2-oxo-pyrrolidin-3-yl]propanamide]
10 | > 1000 | O=C(CCc1c(-c2ccc(F)cc2)[nH]c2c(F)cc(F)cc12)N[C@H]1C[C@H](CO)NC1=O [Compound 8]
11 | < 250 | O=C(CCc1c(-c2ccc(F)cc2)[nH]c2ccc(F)cc12)N[C@@H]1C(=O)NC[C@H]1O [Compound 46]
12 | < 250 | O=C(CCc1c(-c2ccccc2)[nH]c2ccccc12)N[C@@H]1C(=O)NC[C@H]1O [Compound 86]
13 | < 250 | O=C(CCc1c(-c2ccccc2)[nH]c2c(Br)cccc12)N[C@@H]1C(=O)NC[C@H]1O [Compound 70]
14 | > 1000 | O=C(CCc1c(-c2ccc(F)cc2)[nH]c2ccc(O)cc12)N[C@H]1CCNC1=O [Compound 55, 3-[2-(4-fluorophenyl)-5-hydroxy-1H-indol-3-yl]-N-[(3S)-2-oxopyrrolidin-3-yl]propanamide]
15 | 250 to 1000 | O=C1C[C@H](NC(=O)CCc2c(-c3ccc(F)cc3)[nH]c3c(F)cc(F)cc23)C(=O)N1 [Compound 5]

Row | SMILES | IC50 [nM]
16 | O=C(CCc1c(-c2ccc(Cl)c(F)c2)[nH]c2ccccc12)N[C@@H]1C(=O)NC[C@H]1O [Compound 120] | < 250
17 | Cc1ccc(-c2[nH]c3ccccc3c2CCC(=O)N[C@@H]2C(=O)NC[C@H]2O)c(F)c1 [Compound 122] | < 250
18 | O=C(CCc1c(-c2ccccc2)[nH]c2cccc(F)c12)N[C@@H]1C(=O)NC[C@H]1O [Compound 114, 3-(4-fluoro-2-phenyl-1H-indol-3-yl)-N-[(3S,4R)-4-hydroxy-2-oxo-pyrrolidin-3-yl]propanamide] | < 250
19 | O=C(CCc1c(-c2cc(F)cc(F)c2)[nH]c2ccccc12)N[C@@H]1C(=O)NC[C@H]1O [Compound 127, 3-[2-(3,5-difluorophenyl)-1H-indol-3-yl]-N-[(3S,4R)-4-hydroxy-2-oxo-pyrrolidin-3-yl]propanamide] | 250 to 1000
20 | Cc1ccc(-c2[nH]c3ccccc3c2CCC(=O)N[C@@H]2C(=O)NC[C@H]2O)cc1F [Compound 126] | < 250
21 | N#Cc1ccc(-c2[nH]c3ccccc3c2CCC(=O)N[C@@H]2C(=O)NC[C@H]2O)cc1 [Compound 116, 3-[2-(4-cyanophenyl)-1H-indol-3-yl]-N-[(3S,4R)-4-hydroxy-2-oxo-pyrrolidin-3-yl]propanamide] | < 250
22 | COc1ccc(-c2[nH]c3ccccc3c2CCC(=O)N[C@@H]2C(=O)NC[C@H]2O)cc1 [Compound 121] | < 250
